Test results reported in patent US10556865B2, “Synergistic herbicidal composition containing certain pyridine or pyrimidine carboxylic acids and certain cereal and rice herbicides” (Dow AgroSciences, LLC, priority 2007, dated 2020).
Values joined by “and” are separate entries in the source; they are usually repeats but may differ in a detail not shown here. Identical values can stand only once.

Assays:
Format in all cases: in vivo
[1] = system: kochia (Kochia scoparia L; KCHSC); assay: Postemergence herbicidal activity of mixtures in cereal crops (greenhouse, visual injury)
Procedure: (§1) Seeds of the desired test plant species were planted in Sun Gro MetroMix® 306 planting mixture, which typically has a pH of 6.0 to 6.8 and an organic matter content of about 30 percent, in plastic pots with a surface area of 103.2 square centimeters (cm^2). When required to ensure good germination and healthy plants, a fungicide treatment and/or other chemical or physical treatment was applied. The plants were grown for 7-36 days in a greenhouse with an approximate 14 hour photoperiod which was maintained at about 18° C. during the day and 17° C. during the night. Nutrients and water were added on a regular basis and supplemental lighting was provided with overhead metal halide 1000-Watt lamps as necessary. The plants were employed for testing when they reached the second or third true leaf stage.
(§2) Treatments consisted of compound (as listed in Tables 1 through 64) and a second cereal herbicide alone and in combination. Weighed amounts of esters (methyl) or salts (TEA [triethylammonium], K [potassium]) of 4-amino-3-chloro -6-(4-chloro-2-fluoro-3-methoxyphenyl)pyridine-2-carboxylic acid (Compound A) or of 6-amino-5-chloro-2-(4-chloro-2-fluoro-3-methoxyphenyl)pyrimidine-4-carboxylic acid (Compound B), were placed in 25 milliliter (mL) glass vials and dissolved in a volume of 97:3 v/v acetone/DMSO to obtain 4.5 milligrams (mg) active ingredient (ai)/mL stock solutions. […] The concentrated stock solutions were diluted to 1.5 mg ai/mL with the addition of 2 volumes of an aqueous mixture containing acetone, water, isopropyl alcohol, DMSO, Agri-dex crop oil concentrate, and Triton® X-77 surfactant in a 64.7:26.0:6.7:2.0:0.7:0.01 v/v ratio. A dilution solution was prepared by mixing 1 volume of 97:3 v/v acetone/DMSO and 2 volumes of an aqueous mixture containing acetone, water, isopropyl alcohol, DMSO, Agri-dex crop oil concentrate, and Triton® X-77 surfactant in a 64.7:26.0:6.7:2.0:0.7:0.01 v/v ratio. Compound requirements are based upon a 12 mL application volume at a rate of 187 liters per hectare (L/ha). Spray solutions of the second cereal herbicide and experimental compound mixtures were prepared by adding the stock solutions to the appropriate amount of dilution solution to form 12 mL spray solution with active ingredients in two- and three-way combinations. Formulated compounds were applied to the plant material with an overhead Mandel track sprayer equipped with 8002E nozzles calibrated to deliver 187 L/ha over an application area of 0.503 square meters (m^2) at a spray height of 18 inches (43 cm) above average plant canopy. Control plants were sprayed in the same manner with the solvent blank.
(§3) The treated plants and control plants were placed in a greenhouse as described above and watered by sub-irrigation to prevent wash-off of the test compounds. After 20-22 days, the condition of the test plants as compared with that of the control plants was determined visually and scored on a scale of 0 to 100 percent where 0 corresponds to no injury and 100 corresponds to complete kill.
(§4) Colby's equation was used to determine the herbicidal effects expected from the mixtures (Colby, S. R. 1967. Calculation of the synergistic and antagonistic response of herbicide combinations. Weeds 15:20-22.).
(§5) The following equation was used to calculate the expected activity of mixtures containing two active ingredients, A and B: Expected=A+B−(A×B/100)

[2] = system: Russian thistle (Salsola iberica L; SASKR); assay: as above
Procedure: as §1, §2, §3, §4, §5

[3] = system: black mustard (Brassica nigra L; BRSNI); assay: as above
Procedure: as §1, §2, §3, §4, §5

[4] = system: wild pansy (Viola tricolor L; VIOTR); assay: as above
Procedure: (§6) The plants were grown for 7-36 days in a greenhouse with an approximate 14 hour photoperiod which was maintained at about 18° C. during the day and 17° C. during the night. Nutrients and water were added on a regular basis and supplemental lighting was provided with overhead metal halide 1000-Watt lamps as necessary. The plants were employed for testing when they reached the second or third true leaf stage.
(§7) Treatments consisted of compound (as listed in Tables 1 through 64) and a second cereal herbicide alone and in combination. […] Control plants were sprayed in the same manner with the solvent blank.
as §3, §5

[5] = system: chickweed (Stellaria media L; STEME); assay: as above
Procedure: as §1, §2, §3, §4, §5

[6] = system: cut-leaf geranium (Geranium dissectum L; GERDI); assay: as above
Procedure: as §1, §2, §3, §4, §5

[7] = system: wild buckwheat (Polygonum convolvulus L; POLCO); assay: as above
Procedure: as §1, §2, §3, §4, §5

[8] = system: bird's-eye speedwell (Veronica persica L; VERPE); assay: as above
Procedure: as §6, §7, §3, §5

[9] = system: scented mayweed (Matricaria chamomila L; MATCH); assay: as above
Procedure: as §6, §7, §3, §5

[10] = system: rigid ryegrass (Lolium rigidum L; LOLRI); assay: as above
Procedure: as §1, §2, §3, §4, §5

[11] = system: Canada thistle (Cirsium arvense L; CIRAR); assay: as above
Procedure: as §6, §7, §3, §5

[12] = system: Ischaemum rugosum SALISB. (ISCRU); assay: Postemergence herbicidal mixtures for weed control in direct seeded rice (greenhouse, visual % injury)
[13] = system: blackgrass (Alopecurus myosuroides L; ALOMY); assay: Postemergence herbicidal activity of mixtures in cereal crops (greenhouse, visual injury 0-100 percent after 20-22 days); conditions: 8.75 g/ha, Table 19
Procedure: as §1, with “When required to ensure good germination and healthy plants, a fungicide treatment and/or other chemical or physical treatment was applied.” left out
Treatments consisted of compound (as listed in Tables 1 through 64) and a second cereal herbicide alone and in combination. […] The concentrated stock solutions were diluted to 1.5 mg ai/mL with the addition of 2 volumes of an aqueous mixture containing acetone, water, isopropyl alcohol, DMSO, Agri-dex crop oil concentrate, and Triton® X-77 surfactant in a 64.7:26.0:6.7:2.0:0.7:0.01 v/v ratio. A dilution solution was prepared by mixing 1 volume of 97:3 v/v acetone/DMSO and 2 volumes of an aqueous mixture containing acetone, water, isopropyl alcohol, DMSO, Agri-dex crop oil concentrate, and Triton® X-77 surfactant in a 64.7:26.0:6.7:2.0:0.7:0.01 v/v ratio. Compound requirements are based upon a 12 mL application volume at a rate of 187 liters per hectare (L/ha). […] Formulated compounds were applied to the plant material with an overhead Mandel track sprayer equipped with 8002E nozzles calibrated to deliver 187 L/ha over an application area of 0.503 square meters (m^2) at a spray height of 18 inches […] above average plant canopy. Control plants were sprayed in the same manner with the solvent blank.
as §3, §4, §5

`CC(C)c1ccc(NC(=O)N(C)C)cc1` [Isoproturon] was tested, and the “KCHSC Ob” value ([1]; 300 g/ha alone) was 50%, the “SASKR Ob” value ([2]; 300 g/ha alone) was 33% and the pest or weed control at 300 g/ha ([3]; Brassica, post-emergence, 300 g/ha alone, read-out: BRSNI Ob) was 40%. It also gave a pest or weed control at 300 g/ha ([4]; Viola tricolor, post-emergence, 300 g/ha alone, read-out: VIOTR Ob) of 0%.

`CCC(Oc1ccc(F)c(C(F)(F)F)c1)C(=O)NCc1ccccc1` (stereo not shown) [Beflubutamid] was tested, and the “STEME Ob” value ([5]; 35 g/ha) was 10%, the “STEME Ob” value ([5]; 70 g/ha) was 10% and the “GERDI Ob” value ([6]; 35 g/ha) was 0%. For the same molecule, the “GERDI Ob” value ([6]; 70 g/ha) was 0%, the “POLCO Ob” value ([7]; 35 g/ha) was 10% and the “POLCO Ob” value ([7]; 70 g/ha) was 20%. The “BRSNI Ob” value ([3]; 35 g/ha) was 30%, the “BRSNI Ob” value ([3]; 70 g/ha) was 30% and the “VERPE Ob” value ([8]; 35 g/ha) was 15%. The “VERPE Ob” value ([8]; 70 g/ha) was 23%, the “VIOTR Ob” value ([4]; 35 g/ha) was 15% and the “VIOTR Ob” value ([4]; 70 g/ha) was 23%.

For `COc1c(Cl)ccc(-c2cc(N)c(Cl)c(C(=O)[O-])n2)c1F.[K+]` [Compound A K-salt], the “KCHSC Ob” value ([1]; 8.75 g/ha alone) was 67%, the “KCHSC Ob” value ([1]; 17.5 g/ha alone) was 77% and the “KCHSC Ob” value ([1]; 35 g/ha alone) was 90%. For the same molecule, the “KCHSC Ob” value ([1]; alone 8.75 g/ha) was 67%, the “KCHSC Ob” value ([1]; alone 17.5 g/ha) was 77% and the “KCHSC Ob” value ([1]; alone 35 g/ha) was 90%. The “SASKR Ob” value ([2]; 8.75 g/ha alone) was 63%, the “SASKR Ob” value ([2]; 17.5 g/ha alone) was 67% and the “SASKR Ob” value ([2]; 35 g/ha alone) was 73%. For the same molecule, the “VERPE Ob” value ([8]; 8.75 g/ha alone) was 73%, the “VERPE Ob” value ([8]; 17.5 g/ha alone) was 78% and the “VERPE Ob” value ([8]; 35 g/ha alone) was 83%. For the same molecule, the “VERPE Ob” value ([8]; alone 8.75 g/ha) was 73%, the “VERPE Ob” value ([8]; alone 17.5 g/ha) was 78% and the “VERPE Ob” value ([8]; alone 35 g/ha) was 83%. The “MATCH Ob” value ([9]; 8.75 g/ha alone) was 50%, the “MATCH Ob” value ([9]; 17.5 g/ha alone) was 62% and the “MATCH Ob” value ([9]; 35 g/ha alone) was 57%. The “MATCH Ob” value ([9]; alone 8.75 g/ha) was 50%, the “MATCH Ob” value ([9]; alone 17.5 g/ha) was 62% and the “MATCH Ob” value ([9]; alone 35 g/ha) was 57%. The “VIOTR Ob” value ([4]; 8.75 g/ha alone) was 20%, the “VIOTR Ob” value ([4]; 17.5 g/ha alone) was 48% and the “VIOTR Ob” value ([4]; 35 g/ha alone) was 42%.

In the case of `Nc1cc(Cl)nc(C(=O)O)c1Cl` [Aminopyralid], the “KCHSC Ob” value ([1]; 2.5 g/ha alone) is reported as 0%, the “GERDI Ob” value ([6]; 2.5 g/ha alone) is reported as 0% and the “SASKR Ob” value ([2]; 2.5 g/ha alone) is reported as 18%. For the same molecule, the “BRSNI Ob” value ([3]; 2.5 g/ha alone) was 0%, the “VERPE Ob” value ([8]; 2.5 g/ha alone) was 0% and the “MATCH Ob” value ([9]; 2.5 g/ha alone) was 10% and 8%. The “VIOTR Ob” value ([4]; 2.5 g/ha alone) was 27%.

In the case of `C[N+](C)(C)CCCl` [Chlormequat], the “STEME Ob” value ([5]; 155 g/ha alone) is reported as 0%, the “KCHSC Ob” value ([1]; 155 g/ha alone) is reported as 0% and the “GERDI Ob” value ([6]; 155 g/ha alone) is reported as 0%. For the same molecule, the “POLCO Ob” value ([7]; 155 g/ha alone) was 10%, the “BRSNI Ob” value ([3]; 155 g/ha alone) was 0% and the “MATCH Ob” value ([9]; 155 g/ha alone) was 0%.

With `COc1cc(OC)nc(NC(=O)NS(=O)(=O)c2nc(C(F)(F)F)ccc2C(=O)O)n1` [Flupyrsulfuron, 2-[[[[(4,6-dimethoxy-2-pyrimidinyl)amino]carbonyl]amino]sulfonyl]-6-(trifluoromethyl)-3-pyridinecarboxylic acid, reference compound] the “LOLRI Ob” value ([10]; 5 g/ha, Table 12) was 0%, the “CIRAR Ob” value ([11]; 5 g/ha) was 20% and the “VERPE Ob” value ([8]; 5 g/ha) was 0%. For the same molecule, the pest or weed control at 5 g/ha ([8]; Veronica persica, post-emergence, read-out: VERPE Ob) was 0% and the pest or weed control at 5 g/ha ([4]; Viola tricolor, post-emergence, read-out: VIOTR Ob) was 0%.

With `CCc1cnc(C2=NC(C)(C(C)C)C(=O)N2)c(C(=O)O)c1` (stereo not shown) [Imazethapyr] the “% Injury ISCRU Ob” value ([12]; alone 35 g/ha) was 20%.

With `CCCN(CCC)C(=O)SCc1ccccc1` [Prosulfocarb] the pest or weed control at 500 g/ha ([5]; Stellaria media, post-emergence, 500 g/ha alone, read-out: STEME Ob) was 0%, the “SASKR Ob” value ([2]; 500 g/ha alone) was 0% and the pest or weed control at 500 g/ha ([9]; Matricaria, post-emergence, 500 g/ha alone, read-out: MATCH Ob) was 0%.

`COCc1cnc(C2=NC(C)(C(C)C)C(=O)N2)c(C(=O)O)c1` (stereo not shown) [Imazamox] was tested, and the “% Injury ISCRU Ob” value ([12]; alone 22.4 g/ha) was 50%.

In the case of `CCS(=O)(=O)c1nc2ccccn2c1S(=O)(=O)NC(=O)Nc1nc(OC)cc(OC)n1` [Sulfosulfuron, N-[[(4,6-dimethoxy-2-pyrimidinyl)amino]carbonyl]-2-(ethylsulfonyl)imidazo[1,2-a]pyridine-3-sulfonamide, reference compound], the LOLRI ([10]; 8.75 g/ha, Table 19) is reported as 10%, the “CIRAR Ob” value ([11]; 8.75 g/ha) is reported as 10% and the pest or weed control at 8.75 g/ha ([8]; Veronica persica, post-emergence, 8.75 g/ha, read-out: VERPE Ob) is reported as 30%. For the same molecule, the “ALOMY Ob” value [13] was 85%.
